# Legend:
# [1] = test system: HCT-15, HT29, Lovo and HCT-8 cells; test: In-vitro toxicity test (CCK-8), statements over all four cell lines; format: cell-based, human; conditions: 48 hours
# Method: First, HCT-15 cells were plated on a 96-well plate at a density of 5×10^3 cell/well. […] 48 hours later, the medium was removed and the cells were treated with a cell counting kit (CCK-8, Dojindo, Japan) at 37° C. for 1 hour. Absorbance was measured at 450 nm using a VERSAmax™ microplate reader (Molecular Devices Corp., CA, USA). The cell viability of each group (n=5) was represented as a percentage of normal untreated cells (control group). […] After removing the medium, cell viability was evaluated by CCK-8 assay.
# HCT-8-bearing mice = test: Antitumor effect of EGF-prodrug in vivo; conditions: 1 mg/kg of DOX, 6 times every 3 days, 21 days
# Method: 2×10^6 HCT-15 cells or HCT-8 cells were subcutaneously inoculated to Balb/c-nude mice. […] The injection was carried out into the tail vein every 3 days for a total of 6 times. Antitumor effect was evaluated by sacrificing the mice to which the HCT-15 or HCT-8 cells were administered and measuring the volume of tumor tissue. The volume of the tumor tissue was calculated every day or every other day by 0.53×length×width^2. Tumor growth was monitored for 21 days. After sacrificing the mice, the HCT-15 or HCT-8 tumor tissues were collected. The dissected tumors were imaged and fixed by treating with 4% paraformaldehyde. […] The sections were used for histological or pathological investigation. They were stained with H&E for visualization and subjected to TUNEL assay using a […] TUNEL system (Promega, WI, USA) for investigation of the apoptosis of cancer cells. The tumor tissues stained with H&E and TUNEL were observed using a BX51 optical microscope (Olympus, Tokyo, Japan) and a TCS SP8 confocal laser microscope.
# [2] = test system: HCT-15 tumor-bearing mice; test: Tumor-targeting ability and biodistribution of DOX, C-prodrug, EGF-prodrug; format: in vivo; conditions: intravenous, 24 hours
# Source text: In addition, the tumor-targeting ability of DOX, the C-prodrug and the EGF-prodrug was compared.
# [3] = test system: HCT-15 tumor-bearing mice; test: In-vivo and ex-vivo fluorescence imaging of EGF-Cy5.5, C-probe, EGF-probe; conditions: cryosections, confocal
# Method: The biodistribution of the EGF-probe intravenously administered to mice having HCT-15, HT29, Lovo or HCT-8 tumors was evaluated. First of all, 6-week-old Balb/c-nude mice (Nara-Biotec, Gyeonggi-do, Korea) were prepared and each cell was subcutaneously inoculated into the nude mice at the right flank at a concentration of 2×10^6 cells/mouse to generate tumors. […] At 24 hours after the administration of the EGF-probe, the mouse was imaged using an IVIS fluorescence imaging system. […] IVIS fluorescence imaging was conducted at 24 hours after the administration. Major organs and tumors were obtained and imaged with an IVIS imaging system. The fluorescence intensity of the organs and tumors was analyzed using the Living Image 2.50 software. […] The tumor tissue sections were counter-stained with DAPI and visualized with a confocal microscope.
Compound,cytotoxicity versus concentration [1],tumor size (HCT-8-bearing mice),ex-vivo distribution in organs and tumor [2],fluorescence of tumor tissue sections [3]
"COc1cccc2c1C(=O)c1c(O)c3c(c(O)c1C2=O)C[C@@](O)(C(=O)CO)C[C@@H]3O[C@H]1C[C@H](N)[C@H](O)[C@H](C)O1.Cl [DOX, doxorubicin hydrochloride]",increased with the concentration,not controlled significantly,"significant amounts were accumulated also in the lung, liver and kidney",–
(Ac)CGFLG-DOX [C-prodrug],–,not controlled significantly,–,–
Cy5.5-GFLGGK(BHQ-3)GG-COOH [C-probe],–,–,–,much weaker fluorescence signals

# Reference: patent US20240159744A1, “COLON CANCER DIAGNOSIS OR DETECTION COMPOSITION FOR PREDICTING RESPONSE TO DRUG, AND COMPOSITION FOR PREVENTING OR TREATING COLON CANCER” (priority 2020, published 2024)
